The record followed here is patent publication US7910740B2, “Modulators of amyloid beta” (Hoffmann-La Roche Inc., priority 2007, dated 2011).

This assay concerns γ-secretase. Kind of assay: Cellular γ-secretase assay (inhibition of Aβ42 secretion). The assay is classed as cell-based. Conditions: human neuroglioma H4 cells overexpressing human APP, incubation for 22 hrs, read-out: IC50 in vitro. The method, then:
Cellular γ-Secretase Assay
Human neuroglioma H4 cells overexpressing human APP were plated at 30,000 cells/well/200 μl in 96-well plates in IMDM media containing 10% FCS, 0.2 mg/l Hygromycin B and incubated for 2 h at 37° C., 5% CO2 prior to adding test compounds.
Compounds for testing were dissolved in 100% Me2SO yielding in a 10 mM stock solution.
Typically 12 μl of these solutions were further diluted in 1000 μl of IMDM media (w/o FCS,). Sub sequential 1:1 dilutions gave a ten point dose response curve. 100 μl of each dilution was added to the cells in 96-well plates. Appropriate controls using vehicle only and reference compound were applied to this assay. The final concentration of Me2SO was 0.4%.
After incubation for 22 hrs at 37° C., 5% CO2, 50 μl supernatant was transferred into round-bottom 96-well polypropylene plates for detection of Aβ42. 50 μl assay buffer (50 mM Tris/Cl, pH 7.4, 60 mM NaCl, 0.5% BSA, 1% TWEEN 20) was added to the wells followed by the addition of 100 μl of detection antibody (ruthenylated BAP15 0.0625 μg/ml in assay buffer). 50 μl of a premix of capture antibody (biotinylated 6E10 antibody, 1 μg/ml) and Steptavidin-coated magnetic beads (Dynal M-280, 0.125 mg/ml) were preincubated for 1 hr at room temperature before adding the assay plates. Assay plates were incubated on a shaker for 3 hrs at room temperature and finally read in the Bioveris M8 Analyser according to the manufacturer's instructions (Bioveris).
IC50 values for inhibition of Aβ42 secretion were calculated by nonlinear regression fit analysis using XLfit 4.0 software (IDBS).
In the case of `CCOC(=O)c1sc(Nc2ccc(-n3cnc(C)c3)c(OC)c2)nc1C(F)(F)F` [Example 42, 2-[3-Methoxy-4-(4-methyl-imidazol-1-yl)-phenylamino]-4-trifluoromethyl-thiazole-5-carboxylic acid ethyl ester], the IC50 was 640 nM. As for `COc1cc(Nc2nc(C)c(Cc3ccc(Cl)c(Cl)c3)s2)ccc1-n1cnc(C)c1` [Example 71, [5-(3,4-Dichloro-benzyl)-4-methyl-thiazol-2-yl]-[3-methoxy-4-(4-methyl-imidazol-1-yl)-phenyl]-amine], the IC50 stood at 280 nM. On to `COc1cc(Nc2nc(C)c(Cc3ccc(C)c(Cl)c3)s2)ccc1-n1cnc(C)c1` [Example 70, [5-(3-Chloro-4-methyl-benzyl)-4-methyl-thiazol-2-yl]-[3-methoxy-4-(4-methyl-imidazol-1-yl)-phenyl]-amine], for which the IC50 was 710 nM. On to `COc1ccc(Br)cc1-c1csc(Nc2ccc(-n3cnc(C)c3)c(OC)c2)n1` [Example 16, [4-(5-Bromo-2-methoxy-phenyl)-thiazol-2-yl]-[3-methoxy-4-(4-methyl-imidazol-1-yl)-phenyl]-amine], for which the IC50 worked out at 900 nM. Regarding `COc1cc(Nc2nc([C@H](CC(C)C)NC(=O)CC(F)(F)F)cs2)ccc1-n1cnc(C)c1` [Example 38, 3,3,3-Trifluoro-N—((S)-1-{2-[3-methoxy-4-(4-methyl-imidazol-1-yl)-phenylamino]-thiazol-4-yl}-3-methyl-butyl)-propionamide], the IC50 stood at 290 nM. On to `COc1cc(Nc2nc(C)c(Cc3ccc(C(C)(C)C)cc3)s2)ccc1-n1cnc(C)c1` [Example 8, [5-(4-tert-Butyl-benzyl)-4-methyl-thiazol-2-yl]-[3-methoxy-4-(4-methyl-imidazol-1-yl)-phenyl]-amine], for which the IC50 amounted to 570 nM. Regarding `Cc1cn(-c2ccc(Nc3nc(C)c(Cc4cccc(Cl)c4)s3)cc2C#N)cn1` [Example 4, 5-[5-(3-Chloro-benzyl)-4-methyl-thiazol-2-ylamino]-2-(4-methyl-imidazol-1-yl)-benzonitrile], the IC50 was determined as 750 nM. With `COc1cc(Nc2nc(C)c(Cc3ccc(Cl)cc3)s2)ccc1-n1cnc(C)c1` [Example 2, [5-(4-Chloro-benzyl)-4-methyl-thiazol-2-yl]-[3-methoxy-4-(4-methyl-imidazol-1-yl)-phenyl]-amine], the IC50 is 240 nM.

For the compound `COc1cc(Nc2nc(C)c(Cc3cccc(Cl)c3)s2)ccc1-n1cnc(C)c1` [Example 1, [5-(3-Chloro-benzyl)-4-methyl-thiazol-2-yl]-[3-methoxy-4-(4-methyl-imidazol-1-yl)-phenyl]-amine], the IC50 is 210 nM. For the compound `COc1cc(Nc2nc(C)c(Cc3ccc(Cl)c(C(F)(F)F)c3)s2)ccc1-n1cnc(C)c1` [Example 68, [5-(4-Chloro-3-trifluoromethyl-benzyl)-4-methyl-thiazol-2-yl]-[3-methoxy-4-(4-methyl-imidazol-1-yl)-phenyl]-amine], the IC50 stood at 890 nM.

Turning to `COc1ccc(Br)cc1-c1csc(Nc2ccc(-n3cnc(C)c3)cc2)n1` [Example 21, [4-(5-Bromo-2-methoxy-phenyl)-thiazol-2-yl]-[4-(4-methyl-imidazol-1-yl)-phenyl]-amine], the IC50 is 880 nM. Consider `COc1cc(Nc2ncc(C(O)c3ccccc3)s2)ccc1-n1cnc(C)c1` (centres unmarked) [Example 62, {2-[3-Methoxy-4-(4-methyl-imidazol-1-yl)-phenylamino]-thiazol-5-yl}-phenyl-methanol], for which the IC50 stood at 570 nM. As for `COc1cc(Nc2nc([C@H](Cc3ccccc3)NS(=O)(=O)c3ccc(C)cc3)cs2)ccc1-n1cnc(C)c1` [Example 55, N—((S)-1-{2-[3-Methoxy-4-(4-methyl-imidazol-1-yl)-phenylamino]-thiazol-4-yl}-2-phenyl-ethyl)-4-methyl-benzenesulfonamide], the IC50 is 800 nM. Then `COc1ccc(Br)cc1-c1csc(Nc2ccc(-n3ccnc3)c(OC)c2)n1` [Example 22, [4-(5-Bromo-2-methoxy-phenyl)-thiazol-2-yl]-(4-imidazol-1-yl-3-methoxy-phenyl)-amine], with 790 nM. Then `COc1cc(Nc2nc(C)c(Cc3ccc(C#N)cc3)s2)ccc1-n1cnc(C)c1` [Example 6, 4-{2-[3-Methoxy-4-(4-methyl-imidazol-1-yl)-phenylamino]-4-methyl-thiazol-5-ylmethyl}-benzonitrile], with 870 nM; and `COc1cc(Nc2nc([C@H](CC(C)C)NS(=O)(=O)Cc3ccccc3)cs2)ccc1-n1cnc(C)c1` [Example 40, N—((S)-1-{2-[3-Methoxy-4-(4-methyl-imidazol-1-yl)-phenylamino]-thiazol-4-yl}-3-methyl-butyl)-C-phenyl-methanesulfonamide], with 550 nM. Turning to `COc1cc(Nc2nc([C@H](CC(C)C)NS(=O)(=O)c3ccc(F)cc3)cs2)ccc1-n1cnc(C)c1` [Example 39, 4-Fluoro-N—((S)-1-{2-[3-methoxy-4-(4-methyl-imidazol-1-yl)-phenylamino]-thiazol-4-yl}-3-methyl-butyl)-benzene sulfonamide], the IC50 amounted to 910 nM. `COc1cc(Nc2nc(CC(=O)Nc3ccc(F)cc3)cs2)ccc1-n1cnc(C)c1` [Example 29, N-(4-Fluoro-phenyl)-2-{2-[3-methoxy-4-(4-methyl-imidazol-1-yl)-phenylamino]-thiazol-4-yl}-acetamide]: the IC50 is 950 nM. Regarding `COc1cc(Nc2nc([C@H](CC(C)C)NC(=O)Cc3ccc(F)cc3)cs2)ccc1-n1cnc(C)c1` [Example 34, 2-(4-Fluoro-phenyl)-N—((S)-1-{2-[3-methoxy-4-(4-methyl-imidazol-1-yl)-phenylamino]-thiazol-4-yl}-3-methyl-butyl)-acetamide], the IC50 came out at 520 nM. Turning to `COc1cc(Nc2ncc(C(O)c3ccc(Cl)cc3)s2)ccc1-n1cnc(C)c1` (centres unmarked) [Example 76, (4-Chloro-phenyl)-{2-[3-methoxy-4-(4-methyl-imidazol-1-yl)-phenylamino]-thiazol-5-yl}-methanol], the IC50 came out at 340 nM. Then `COc1cc(Nc2nc(C)c(Cc3cccc(OC(F)(F)C(F)F)c3)s2)ccc1-n1cnc(C)c1` [Example 69, [3-Methoxy-4-(4-methyl-imidazol-1-yl)-phenyl]-{4-methyl-5-[3-(1,1,2,2-tetrafluoro-ethoxy)-benzyl]-thiazol-2-yl}-amine], with 730 nM; and `COc1cc(Nc2nc(C(C)(C)c3cc(F)c(F)c(F)c3)cs2)ccc1-n1cnc(C)c1` [Example 78, [3-Methoxy-4-(4-methyl-imidazol-1-yl)-phenyl]-{4-[1-methyl-1-(3,4,5-trifluoro-phenyl)-ethyl]-thiazol-2-yl}-amine], with 680 nM. With `COc1cc(Nc2nc([C@H](CC(C)C)NC(=O)c3ccc(F)cc3)cs2)ccc1-n1cnc(C)c1` [Example 37, 4-Fluoro-N—((S)-1-{2-[3-methoxy-4-(4-methyl-imidazol-1-yl)-phenylamino]-thiazol-4-yl}-3-methyl-butyl)-benzamide], the IC50 stood at 410 nM. With `COc1cc(Nc2nc3c(s2)CN(C(=O)OC(C)(C)C)CC3)ccc1-n1cnc(C)c1` [Example 43, 2-[3-Methoxy-4-(4-methyl-imidazol-1-yl)-phenylamino]-6,7-dihydro-4H-thiazolo[5,4-c]pyridine-5-carboxylic acid tert-butyl ester], the IC50 turned out to be 790 nM. For the compound `COc1cc(Nc2nc(C)c(Cc3ccccc3Cl)s2)ccc1-n1cnc(C)c1` [Example 7, [5-(2-Chloro-benzyl)-4-methyl-thiazol-2-yl]-[3-methoxy-4-(4-methyl-imidazol-1-yl)-phenyl]-amine], the IC50 was found to be 520 nM. With `COc1cc(Nc2nc([C@H](CC(C)C)NS(C)(=O)=O)cs2)ccc1-n1cnc(C)c1` [Example 41, N—((S)-1-{2-[3-Methoxy-4-(4-methyl-imidazol-1-yl)-phenylamino]-thiazol-4-yl}-3-methyl-butyl)-methane sulfonamide], the IC50 was 900 nM. To `COc1cc(Nc2nc(C(C)(C)c3ccc(Cl)cc3)cs2)ccc1-n1cnc(C)c1` [Example 77, {4-[1-(4-Chloro-phenyl)-1-methyl-ethyl]-thiazol-2-yl}-[3-methoxy-4-(4-methyl-imidazol-1-yl)-phenyl]-amine] belongs 140 nM; to `COc1cc(Nc2nc(C)c(Cc3cccc(C(F)(F)F)c3)s2)ccc1-n1cnc(C)c1` [Example 9, [3-Methoxy-4-(4-methyl-imidazol-1-yl)-phenyl]-[4-methyl-5-(3-trifluoromethyl-benzyl)-thiazol-2-yl]-amine], 920 nM. Then `COc1cc(Nc2nc([C@H](CC(C)C)NC(=O)OC(C)(C)C)cs2)ccc1-n1cnc(C)c1` [Example 30, ((S)-1-{2-[3-Methoxy-4-(4-methyl-imidazol-1-yl)-phenylamino]-thiazol-4-yl}-3-methyl-butyl)-carbamic acid tert-butyl ester], with 390 nM.
